Measurements as given in patent US20240182445A1 (ONO PHARMACEUTICAL CO., LTD., priority 2019, published 2024).

Molecular target: T1, human TREK-1 (Homo sapiens, UniProt O95069)
T1 construct: expressed in transfected cells
T1 sequence (O95069 1-426): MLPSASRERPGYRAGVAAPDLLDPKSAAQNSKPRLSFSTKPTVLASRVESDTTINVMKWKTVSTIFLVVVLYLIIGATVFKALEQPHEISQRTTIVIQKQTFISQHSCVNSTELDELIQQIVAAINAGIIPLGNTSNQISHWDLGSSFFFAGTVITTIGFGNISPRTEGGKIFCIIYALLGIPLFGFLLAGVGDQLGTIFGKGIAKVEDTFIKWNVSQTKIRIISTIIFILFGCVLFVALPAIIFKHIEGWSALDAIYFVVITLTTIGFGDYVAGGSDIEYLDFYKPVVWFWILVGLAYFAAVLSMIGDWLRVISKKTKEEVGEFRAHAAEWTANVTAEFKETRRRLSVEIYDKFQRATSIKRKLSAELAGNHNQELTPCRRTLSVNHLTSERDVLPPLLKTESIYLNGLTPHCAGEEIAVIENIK
Assay: TREK-1 Thallium (Tl+) flux assay, Method 1
Type: cell-based
Conditions: TREK-1 Thallium (Tl+) flux assay, Method 1
Experimental: The term “thallium flux assay” herein refers to a fluorescence-based assay used to monitor the activity of TREK channels. Thallium is a congener of potassium that readily fluxes through the pore of TREK channels. Thallium flux is measured using a commercially available, thallium-sensitive fluorescent dye called Thallos. The detail method is described below.
CHO-K1 cells stably expressing human TREK-1 were plated in 384-well plates, cultured overnight, loaded with Thallos dye the following day. Test compounds or control compound (tert-butyl (3-((4-(benzyloxy)-2-methylphenyl)carbamoyl)-4-chlorophenyl)carbamate) or 0.3% DMSO (vehicle control) which were prepared on separate plates were added to the cell plates and incubated for 10 min, and then the cells were treated with thallium stimulus buffer to initiate thallium flux. To measure the efficacy and potency of test compounds, the change in fluorescence intensity (ΔRatio) and % inhibition were calculated using the following equations:
ΔRatio=(fluorescence intensity at 25 seconds after thallium addition)/(average of fluorescent intensity before thallium addition)

IC50 [µM]	Compound
6.35	Cc1cc(OCc2ccccc2)ccc1NC(=O)c1c(Cl)cnn1C1CCN(C(=O)OC(C)(C)C)CC1 [Compound 430, tert-butyl 4-(5-((4-(benzyloxy)-2-methylphenyl)carbamoyl)-4-chloro-1H-pyrazol-1-yl)piperidine-1-carboxylate]
1.27	CC(=O)N1CCC(n2ncc(Cl)c2C(=O)Nc2ncc(OCc3ccccc3)cc2C)CC1 [Compound 393, 1-(1-acetylpiperidin-4-yl)-N-(5-(benzyloxy)-3-methylpyridin-2-yl)-4-chloro-1H-pyrazole-5-carboxamide]

More lines, now with the values behind:

Compound	IC50 [µM]
COc1c(F)cc(-c2cnc(NC(=O)c3c(Cl)cnn3C3CCN(C(C)=O)CC3)c(C)c2)cc1F [Compound 428, 1-(1-acetylpiperidin-4-yl)-4-chloro-N-(5-(3,5-difluoro-4-methoxyphenyl)-3-methylpyridin-2-yl)-1H-pyrazole-5-carboxamide]	5.31
CCCCOc1ccc(-c2cnc(NC(=O)c3c(Cl)cnn3C3CCN(C(C)=O)CC3)c(C)c2)cc1 [Compound 416, 1-(1-acetylpiperidin-4-yl)-N-(5-(4-butoxyphenyl)-3-methylpyridin-2-yl)-4-chloro-1H-pyrazole-5-carboxamide]	4.07

Same assay, conditions: TREK-1 Thallium (Tl+) flux assay; no *^12 (Method 2) mark on these rows

IC50 [µM]	Compound
1.15	Cc1cc(C#Cc2ccccc2)cnc1NC(=O)c1c(Cl)ccn1CC1CCOCC1 [Compound 375, 3-chloro-N-(3-methyl-5-(phenylethynyl)pyridin-2-yl)-1-((tetrahydro-2H-pyran-4-yl)methyl)-1H-pyrrole-2-carboxamide]
0.58	Cc1cc(C#Cc2ccccc2)cnc1NC(=O)c1c(Cl)cnn1[C@H]1CC[C@@H](NC(=O)OC(C)(C)C)CC1 [Compound 309, Tert-butyl (cis-4-(4-chloro-5-((3-methyl-5-(phenylethynyl)pyridin-2-yl)carbamoyl)-1H-pyrazol-1-yl)cyclohexyl)carbamate]

More lines, now with the values behind:

Compound	IC50 [µM]
Cc1cc(C#Cc2ccc(F)cc2)cnc1NC(=O)c1c(Cl)cnn1CC1CN(C(=O)C2CCC2)CCO1 (stereo not drawn) [Compound 367, 4-chloro-1-((4-(cyclobutanecarbonyl)morpholin-2-yl)methyl)-N-(5-((4-fluorophenyl)ethynyl)-3-methylpyridin-2-yl)-1H-pyrazole-5-carboxamide]	0.94
Cc1cc(C#Cc2ccc(F)cc2)cnc1NC(=O)c1c(Cl)cnn1CC1(F)CCN(C(=O)C2CC2)CC1 [Compound 302, 4-chloro-1-((1-(cyclopropanecarbonyl)-4-fluoropiperidin-4-yl)methyl)-N-(5-((4-fluorophenyl)ethynyl)-3-methylpyridin-2-yl)-1H-pyrazole-5-carboxamide]	0.55
O=C(Nc1ncc(C#Cc2ccccc2)cc1F)c1c(Cl)cnn1[C@H]1CCOC1 [Compound 275, (S)-4-chloro-N-(3-fluoro-5-(phenylethynyl)pyridin-2-yl)-1-(tetrahydrofuran-3-yl)-1H-pyrazole-5-carboxamide]	0.48
Cc1cc(C#Cc2ccccc2)cnc1NC(=O)c1c(Cl)cnn1C[C@@H]1CCN(C(=O)C(C)C)C[C@H]1F [Compound 222, 4-chloro-1-(((3S,4S)-3-fluoro-1-isobutyrylpiperidin-4-yl)methyl)-N-(3-methyl-5-(phenylethynyl)pyridin-2-yl)-1H-pyrazole-5-carboxamide]	0.34
CC(C)(C)OC(=O)N1CCC2(CC1)CC(n1ncc(Cl)c1C(=O)Nc1ncc(C#Cc3ccccc3)cc1F)C2 [Compound 346, tert-butyl 2-(4-chloro-5-((3-fluoro-5-(phenylethynyl)pyridin-2-yl)carbamoyl)-1H-pyrazol-1-yl)-7-azaspiro[3.5]nonane-7-carboxylate]	0.77
Cc1cc(C#Cc2ccc(F)cc2)cnc1NC(=O)c1c(Cl)cnn1CC1CCCN(C(=O)C2CC2)C1 (stereo not drawn) [Compound 271, 4-chloro-1-((1-(cyclopropanecarbonyl)piperidin-3-yl)methyl)-N-(5-((4-fluorophenyl)ethynyl)-3-methylpyridin-2-yl)-1H-pyrazole-5-carboxamide]	0.46
Cn1ncc2cc(-n3ncc(Cl)c3C(=O)Nc3ncc(C#Cc4ccccc4)cc3F)ccc21 [Compound 270, 4-chloro-N-(3-fluoro-5-(phenylethynyl)pyridin-2-yl)-1-(1-methyl-1H-indazole-5-yl)-1H-pyrazole-5-carboxamide]	0.46
Cc1cc(C#Cc2ccc(F)cc2)cnc1NC(=O)c1c(Cl)cnn1CC1CCN(C(=O)C(C)C)CC1(F)F (stereo not drawn) [Compound 350, 4-chloro-1-((3,3-difluoro-1-isobutyrylpiperidin-4-yl)methyl)-N-(5-((4-fluorophenyl)ethynyl)-3-methylpyridin-2-yl)-1H-pyrazole-5-carboxamide]	0.82
CC(=O)N1CCC(n2ncc(Cl)c2C(=O)Nc2ncc(C#Cc3ccccc3)cc2C)C1 (stereo not drawn) [Compound 238, 1-(1-acetylpyrrolidin-3-yl)-4-chloro-N-(3-methyl-5-(phenylethynyl)pyridin-2-yl)-1H-pyrazole-5-carboxamide]	0.37
Cc1cc(C#Cc2ccccc2)cnc1NC(=O)c1c(Cl)cnn1CC1(C#N)CC1 [Compound 267, 4-chloro-1-((1-cyanocyclopropyl)methyl)-N-(3-methyl-5-(phenylethynyl)pyridin-2-yl)-1H-pyrazole-5-carboxamide]	0.45

Same assay, conditions: TREK-1 Thallium (Tl+) flux assay; values without footnote *12 are Method 1

IC50 [µM]	Compound
0.22	CC(=O)N1CC[C@H](n2ncc(Cl)c2C(=O)Nc2ncc(C#Cc3ccccc3)cc2F)C1 [Compound 129, (S)-1-(1-acetylpyrrolidin-3-yl)-4-chloro-N-(3-fluoro-5-(phenylethynyl)pyridin-2-yl)-1H-pyrazole-5-carboxamide]
0.08	Cc1cc(C#Cc2ccccc2)cnc1NC(=O)c1c(Cl)cnn1-c1ccc2c(cnn2C)c1 [Compound 22, 4-chloro-1-(1-methyl-1H-indazol-5-yl)-N-(3-methyl-5-(phenylethynyl)pyridin-2-yl)-1H-pyrazole-5-carboxamide]

Further lines, the molecule ahead of its results:

Compound	IC50 [µM]
CC(=O)N1CCC(n2ncc(Cl)c2C(=O)Nc2ncc(C#Cc3ccccc3F)cc2C)CC1 [Compound 164, 1-(1-acetylpiperidin-4-yl)-4-chloro-N-(5-((2-fluorophenyl)ethynyl)-3-methylpyridin-2-yl)-1H-pyrazole-5-carboxamide]	0.26
O=C(Nc1c(F)cc(C#Cc2ccccc2)cc1F)c1c(Cl)cnn1C[C@H]1CCOC1 [Compound 162, (R)-4-chloro-N-(2,6-difluoro-4-(phenylethynyl)phenyl)-1-((tetrahydrofuran-3-yl)methyl)-1H-pyrazole-5-carboxamide]	0.26
O=C(Nc1c(F)cc(C#Cc2ccccc2)cc1F)c1c(Cl)cnn1C[C@@H]1CCOC1 [Compound 161]	0.26
Cc1cc(C#Cc2ccccc2)cnc1NC(=O)c1c(Cl)cnn1CC1(C#N)CCN(C(=O)C(C)C)CC1 [Compound 49, 4-chloro-1-((4-cyano-1-isobutyrylpiperidin-4-yl)methyl)-N-(3-methyl-5-(phenylethynyl)pyridin-2-yl)-1H-pyrazole-5-carboxamide]	0.13
CC(=O)N1CCC(Cn2ncc(Cl)c2C(=O)Nc2ncc(C#Cc3ccccc3)cc2F)C(F)(F)C1 (stereo not drawn) [Compound 192, 1-((1-acetyl-3,3-difluoropiperidin-4-yl)methyl)-4-chloro-N-(3-fluoro-5-(phenylethynyl)pyridin-2-yl)-1H-pyrazole-5-carboxamide]	0.29
Cc1cc(C#Cc2ccccc2)cnc1NC(=O)c1c(Cl)cnn1C(C)C1CCN(C(=O)OC(C)(C)C)CC1 (stereo not drawn) [Compound 77, tert-butyl 4-(1-(4-chloro-5-((3-methyl-5-(phenylethynyl)pyridin-2-yl)carbamoyl)-1H-pyrazol-1-yl)ethyl)piperidine-1-carboxylate]	0.16
Cc1cc(C#Cc2ccccc2)cnc1NC(=O)c1c(Cl)cnn1CCC1CCN(C(=O)C2CC2)CC1 [Compound 172, 4-chloro-1-(2-(1-(cyclopropanecarbonyl)piperidin-4-yl)ethyl)-N-(3-methyl-5-(phenylethynyl)pyridin-2-yl)-1H-pyrazole-5-carboxamide]	0.27

Same assay, conditions: read-out: Tl^+ Assay % inhibition at 30 uM (Minus value indicates activation of TREK-1); at 30 uM; CHO-K1 cells stably expressing human TREK-1; minus = activation

inhibition at 30 µM [%]	Compound
-116	Cc1cc(C#Cc2ccccc2)cnc1NC(=O)c1nn(C2CCOCC2)cc1Cl [Compound 443, 4-chloro-N-(3-methyl-5-(phenylethynyl)pyridin-2-yl)-1-(tetrahydro-2H-pyran-4-yl)-1H-pyrazole-3-carboxamide]
-108	Cc1cc(C#Cc2ccc(F)cc2)cnc1NC(=O)c1nn(CCC2CCN(C(=O)C(C)C)CC2)cc1Cl [Compound 446, 4-chloro-N-(5-((4-fluorophenyl)ethynyl)-3-methylpyridin-2-yl)-1-(2-(1-isobutyrylpiperidin-4-yl)ethyl)-1H-pyrazole-3-carboxamide]
